Measurements reported in patent US20240408093A1, “HETEROBIFUNCTIONAL COMPOUNDS AND THEIR USE IN TREATING DISEASE” (HALDA THERAPEUTICS OPCO, INC., priority 2022, published 2024).

How the values were obtained:
KRAS G12C = KRAS G12C (Homo sapiens, UniProt P01116, G12C); assay: KRAS G12C cellular target engagement assay (SW1573 cells); type: cell-based; parameters: host or cells: SW1573; conditions: 17 hours, read-out: TE50 (the source's name)
Method: SW1573 cells (ATCC CRL-2170) were cultured in RPMI 1640 (Gibco A1049101), supplemented with 10% Heat-inactivated FBS (Gibco Cat. #A38400-01) and 1% Penicillin/Streptomycin (Gibco Cat. #15140-122) in an incubator set at 37° C. and 5% CO2. Cells were seeded at 100,000 cells/ml in 1 ml of complete media in a 24-well, tissue culture-treated plate (Falcon 353226) and incubated overnight. Cells were treated with increasing concentrations of compound and let incubate at 37C and 5% CO2 for 17 hours, after which media was aspirated and cells were lysed in 75 uL RIPA Lysis and Extraction Buffer (Thermo 89901) supplemented with 5 mM MgCl2, Protease and Phosphatase inhibitor cocktail (Thermo 1861281), and Universal Nuclease (Thermo 88700). Plates with RIPA were shaken at 4° C. at 600 rpm for 15 min. After shaking samples, they were collected and spun down at 21,000 g for 15 min at 4° C. Following centrifugation, ˜10 ug of lysate was added to Laemmli Sample Buffer (Bio-Rad 1610747) plus 10% beta-mercaptoethanol, boiled for 15 minutes at 65° C. and loaded onto 12% Mini-PROTEAN TGX™ Precast Protein Gels (Bio-Rad). Protein was transferred to a nitrocellulose membrane (Thermo LC2000) using the iBlot 2 Dry Blotting System (Thermo). After transfer, membranes were washed in 1× TBST (Bioland Scientific LLC TBST0103) 3× for 5 min. Following the wash, blocking buffer (Rockland MB-070) was added for 1 hour at room temperature. Primary antibodies against KRAS (LifeSpan Bio LS-C175665) and actin (Cell Signaling Technology 8457) were added overnight at 4° C. Membranes were then washed again 3× for 5 min in 1× TBST. Secondary antibodies (LI-COR 926-68072 and 926-68073) were added and shaken for 1 hr at room temperature. Membranes were then washed 3× for 5 min in 1×TBST and developed. Membranes were placed on an Odyssey imager (LI-COR).

GSPT1 = molecular target: T1, GSPT1 (Homo sapiens, UniProt P15170+Q96SW2); assay: GSPT1 HiBiT degradation assay; type: cell-based; conditions: HEK293 LgBiT GSPT1 HiBiT cells, 6 hours
T1 construct: host or cells: HEK293 LgBiT / GSPT1 HiBiT CRISPR knock-in
Method in brief: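 HEK293 CRISPR knock-in cells expressing LgBiT and GSPT1-HiBiT were seeded at 1000 cells/well and, after 18-24 h, treated with titrated compound plus endurazine (0.5× final) at 37 °C. Luminescence read after 6 h; loss of signal reflects GSPT1 degradation, giving DC50.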

KRAS G12C, sequence (P01116 1-188 isoform P01116-2 G12C): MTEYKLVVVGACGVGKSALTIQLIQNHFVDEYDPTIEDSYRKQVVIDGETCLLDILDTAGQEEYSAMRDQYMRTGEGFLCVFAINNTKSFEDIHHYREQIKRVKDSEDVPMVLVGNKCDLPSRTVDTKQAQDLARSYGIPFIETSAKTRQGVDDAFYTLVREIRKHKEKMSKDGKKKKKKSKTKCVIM
T1 sequence (P15170 whole entry): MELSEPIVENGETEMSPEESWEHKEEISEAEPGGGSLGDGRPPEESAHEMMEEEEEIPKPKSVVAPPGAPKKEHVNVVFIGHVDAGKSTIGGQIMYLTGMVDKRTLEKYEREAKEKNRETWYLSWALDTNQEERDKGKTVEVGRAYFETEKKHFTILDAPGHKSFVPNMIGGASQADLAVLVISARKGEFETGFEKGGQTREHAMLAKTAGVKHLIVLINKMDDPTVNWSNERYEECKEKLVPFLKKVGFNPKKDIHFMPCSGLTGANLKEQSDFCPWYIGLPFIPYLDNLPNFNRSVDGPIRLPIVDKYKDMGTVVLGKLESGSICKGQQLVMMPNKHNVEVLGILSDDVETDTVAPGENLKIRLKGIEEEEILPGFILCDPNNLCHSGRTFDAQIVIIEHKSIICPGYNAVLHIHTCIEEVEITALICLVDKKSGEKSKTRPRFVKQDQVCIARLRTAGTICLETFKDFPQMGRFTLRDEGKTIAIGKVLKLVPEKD
T1 sequence (Q96SW2 whole entry): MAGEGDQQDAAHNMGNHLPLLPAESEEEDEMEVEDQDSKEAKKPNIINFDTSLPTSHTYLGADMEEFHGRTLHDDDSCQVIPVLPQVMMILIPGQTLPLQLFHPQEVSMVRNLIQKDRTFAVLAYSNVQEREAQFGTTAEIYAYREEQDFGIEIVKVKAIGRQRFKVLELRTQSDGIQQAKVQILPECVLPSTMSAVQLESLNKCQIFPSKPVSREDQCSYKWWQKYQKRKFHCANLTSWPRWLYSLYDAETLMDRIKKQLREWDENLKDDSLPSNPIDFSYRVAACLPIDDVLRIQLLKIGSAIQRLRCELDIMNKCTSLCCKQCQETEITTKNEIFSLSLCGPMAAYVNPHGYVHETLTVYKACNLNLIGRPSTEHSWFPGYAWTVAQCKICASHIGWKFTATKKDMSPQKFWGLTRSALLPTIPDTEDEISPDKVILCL
T1 sequence (Q16531 whole entry partner): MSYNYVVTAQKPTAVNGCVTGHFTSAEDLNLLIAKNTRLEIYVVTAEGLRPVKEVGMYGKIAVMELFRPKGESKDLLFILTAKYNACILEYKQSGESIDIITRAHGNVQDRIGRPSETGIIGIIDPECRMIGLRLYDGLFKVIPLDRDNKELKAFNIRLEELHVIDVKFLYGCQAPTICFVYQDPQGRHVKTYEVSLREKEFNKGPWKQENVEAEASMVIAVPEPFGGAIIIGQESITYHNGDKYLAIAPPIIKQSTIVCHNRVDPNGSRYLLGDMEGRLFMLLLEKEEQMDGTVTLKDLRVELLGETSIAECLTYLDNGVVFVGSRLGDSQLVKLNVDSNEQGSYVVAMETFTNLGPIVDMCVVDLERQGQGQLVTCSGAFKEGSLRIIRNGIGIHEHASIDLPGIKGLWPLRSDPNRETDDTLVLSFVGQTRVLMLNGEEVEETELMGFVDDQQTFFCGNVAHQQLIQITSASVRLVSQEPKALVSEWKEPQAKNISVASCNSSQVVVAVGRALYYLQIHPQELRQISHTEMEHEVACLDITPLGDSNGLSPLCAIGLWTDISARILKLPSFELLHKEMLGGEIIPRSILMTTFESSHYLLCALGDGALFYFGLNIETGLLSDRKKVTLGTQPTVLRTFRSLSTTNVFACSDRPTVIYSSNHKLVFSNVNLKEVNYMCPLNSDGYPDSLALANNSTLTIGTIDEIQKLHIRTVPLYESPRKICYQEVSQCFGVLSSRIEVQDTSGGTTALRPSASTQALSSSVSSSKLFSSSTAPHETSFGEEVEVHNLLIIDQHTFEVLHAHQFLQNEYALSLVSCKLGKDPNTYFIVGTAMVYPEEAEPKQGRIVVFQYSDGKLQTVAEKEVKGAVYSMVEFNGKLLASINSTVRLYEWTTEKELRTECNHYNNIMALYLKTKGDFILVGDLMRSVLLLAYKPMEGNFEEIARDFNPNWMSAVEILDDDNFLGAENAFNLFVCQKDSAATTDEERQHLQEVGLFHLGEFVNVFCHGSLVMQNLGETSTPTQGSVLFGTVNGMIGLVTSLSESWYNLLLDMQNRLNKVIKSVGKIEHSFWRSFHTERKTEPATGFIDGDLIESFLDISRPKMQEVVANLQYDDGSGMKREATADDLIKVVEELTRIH

For `C=C(COc1ccc(CN2C(=O)CCC(N3Cc4cc(CNC(=O)Nc5ccc(C)c(Cl)c5)ccc4C3=O)C2=O)cc1)C(=O)N1CCN(c2nc(OC[C@H]3CCCN3C)nc3c2CCN(c2cccc4cccc(Cl)c24)C3)C[C@@H]1CC#N` (stereo in doubt) [Compound I-44], the EC50 (KRAS G12C) was 250 to 5000 nM and the DC50 (GSPT1) was over 2500 nM.
Molecule `C=C(COc1cc(Cl)cc(NC(=O)NCc2ccc3c(c2)CN(C2CCC(=O)NC2=O)C3=O)c1)C(=O)N1CCN(c2nc(OC[C@@H]3CCCN3C)nc3c2CCN(c2cccc4cccc(Cl)c24)C3)C[C@@H]1CC#N` (stereo partly drawn) [Compound I-35] has an EC50 (KRAS G12C) of 250 to 5000 nM and a DC50 (GSPT1) of over 2500 nM.
`C=C(COc1cc(Cl)c(OC)cc1NC(=O)NCc1ccc2c(c1)CN(C1CCC(=O)NC1=O)C2=O)C(=O)N1CCN(c2nc(OC[C@@H]3CCCN3C)nc3c2CCN(c2cccc4cccc(Cl)c24)C3)C[C@@H]1CC#N` (stereo partly drawn) [Compound I-46] was tested, and the EC50 (KRAS G12C) was 250 to 5000 nM and the DC50 (GSPT1) was 500 to 2500 nM.
For `C=C(COc1cc(NC(=O)NCc2ccc3c(c2)CN(C2CCC(=O)NC2=O)C3=O)cc(C(F)(F)F)c1)C(=O)N1CCN(c2nc(OC[C@@H]3CCCN3C)nc3c2CCN(c2cccc4cccc(Cl)c24)C3)C[C@@H]1CC#N` (stereo partly drawn) [Compound I-48], the EC50 (KRAS G12C) was 250 to 5000 nM and the DC50 (GSPT1) was 500 to 2500 nM.
Work on `C=C(COc1cccc(NC(=O)NCc2ccc3c(c2)CN(C2CCC(=O)NC2=O)C3=O)c1)C(=O)N1CCN(c2nc(OC[C@@H]3CCCN3C)nc3c2CCN(c2cccc4cccc(Cl)c24)C3)C[C@@H]1CC#N` (stereo partly drawn) [Compound I-49] yielded an EC50 (KRAS G12C) of under 250 nM and a DC50 (GSPT1) of 500 to 2500 nM.
For `C=C(COc1cc(NC(=O)NCc2ccc3c(c2)CN(C2CCC(=O)NC2=O)C3=O)cc(OC)c1)C(=O)N1CCN(c2nc(OC[C@@H]3CCCN3C)nc3c2CCN(c2cccc4cccc(Cl)c24)C3)C[C@@H]1CC#N` (stereo partly drawn) [Compound I-50], the EC50 (KRAS G12C) was 250 to 5000 nM and the DC50 (GSPT1) was over 2500 nM.
`C=C(COc1ccc(Cl)cc1NC(=O)NCc1ccc2c(c1)CN(C1CCC(=O)NC1=O)C2=O)C(=O)N1CCN(c2nc(OC[C@@H]3CCCN3C)nc3c2CCN(c2cccc4cccc(Cl)c24)C3)C[C@@H]1CC#N` (stereo partly drawn) [Compound I-52] was tested, and the EC50 (KRAS G12C) was 250 to 5000 nM and the DC50 (GSPT1) was 500 to 2500 nM.
For `C=C(COc1cc(Cl)cc(NC(=O)NCc2ccc3c(c2)CN(C2CCC(=O)NC2=O)C3=O)c1)C(=O)N1CC2(CC(n3nc(-c4ccc5c(cnn5C)c4)c(-c4c(Cl)c(C)cc5[nH]ncc45)c3C)C2)C1` (stereo not drawn) [Compound I-56], the EC50 (KRAS G12C) was 5000 to 10000 nM and the DC50 (GSPT1) was over 2500 nM.
`C=C(CN(C)c1cccc(NC(=O)NCc2ccc3c(c2)CN(C2CCC(=O)NC2=O)C3=O)c1)C(=O)N1CCN(c2nc(OC[C@@H]3CCCN3C)nc3c2CCN(c2cccc4cccc(Cl)c24)C3)C[C@@H]1CC#N` (stereo partly drawn) [Compound I-58] showed an EC50 (KRAS G12C) of 5000 to 10000 nM and a DC50 (GSPT1) of over 2500 nM.
In the case of `C=C(COc1cc(F)c(F)cc1NC(=O)NCc1ccc2c(c1)CN(C1CCC(=O)NC1=O)C2=O)C(=O)N1CCN(c2nc(OC[C@@H]3CCCN3C)nc3c2CCN(c2cccc4cccc(Cl)c24)C3)C[C@@H]1CC#N` (stereo partly drawn) [Compound I-62], the EC50 (KRAS G12C) is reported as 250 to 5000 nM and the DC50 (GSPT1) is reported as 500 to 2500 nM.
`C=C(COc1ccccc1CNC(=O)NCc1ccc2c(c1)CN(C1CCC(=O)NC1=O)C2=O)C(=O)N1CCN(c2nc(OC[C@@H]3CCCN3C)nc3c2CCN(c2cccc4cccc(Cl)c24)C3)C[C@@H]1CC#N` (stereo partly drawn) [Compound I-63] showed an EC50 (KRAS G12C) of 250 to 5000 nM and a DC50 (GSPT1) of over 2500 nM.
`C=C(COc1cc(Cl)cc(NC(=O)NCc2cc3c(cc2F)C(=O)N(C2CCC(=O)NC2=O)C3)c1)C(=O)N1CCN(c2nc(OC[C@@H]3CCCN3C)nc3c2CCN(c2cccc4cccc(Cl)c24)C3)C[C@@H]1CC#N` (stereo partly drawn) [Compound I-64] showed an EC50 (KRAS G12C) of 250 to 5000 nM and a DC50 (GSPT1) of 500 to 2500 nM.
Molecule `C=C(COc1cc(Cl)c(OC)cc1NC(=O)NCc1ccc2c(c1)CN(C1CCC(=O)NC1=O)C2=O)C(=O)N1CC2(CC(n3nc(-c4ccc5c(cnn5C)c4)c(-c4c(Cl)c(C)cc5[nH]ncc45)c3C)C2)C1` (stereo not drawn) [Compound I-66] has an EC50 (KRAS G12C) of 250 to 5000 nM and a DC50 (GSPT1) of 50 to 500 nM.
`C=C(COc1cc(NC(=O)NCc2ccc3c(c2)CN(C2CCC(=O)NC2=O)C3=O)cc(OC)c1)C(=O)N1CC2(CC(n3nc(-c4ccc5c(cnn5C)c4)c(-c4c(Cl)c(C)cc5[nH]ncc45)c3C)C2)C1` (stereo not drawn) [Compound I-67] was tested, and the EC50 (KRAS G12C) was 5000 to 10000 nM and the DC50 (GSPT1) was 500 to 2500 nM.
With `C=C(COc1cc(NC(=O)NCc2ccc3c(c2F)CN(C2CCC(=O)NC2=O)C3=O)cc(C(F)(F)F)c1)C(=O)N1CC2(CC(n3nc(-c4ccc5c(cnn5C)c4)c(-c4c(Cl)c(C)cc5[nH]ncc45)c3C)C2)C1` (stereo not drawn) [Compound I-68] the EC50 (KRAS G12C) was 250 to 5000 nM and the DC50 (GSPT1) was over 2500 nM.
`C=C(COc1c(Cl)cccc1NC(=O)NCc1ccc2c(c1)CN(C1CCC(=O)NC1=O)C2=O)C(=O)N[C@@H]1CN(c2nc(Nc3cn(C)nc3OC)c3ncn(C)c3n2)C[C@H]1F` (stereo partly drawn) [Compound I-69] gave a DC50 (GSPT1) of 50 to 500 nM.
`C=C(CN(C(=O)NCc1ccc2c(c1)CN(C1CCC(=O)NC1=O)C2=O)c1ccc(C)c(Cl)c1)C(=O)Nc1cccc(Oc2nc(Nc3ccc(N4CCN(C)CC4)cc3)nc3ccsc23)c1` (stereo not drawn) [Compound I-70] was tested, and the DC50 (GSPT1) was over 2500 nM.
Molecule `C=C(CN(C(=O)NCc1ccc2c(c1)CN(C1CCC(=O)NC1=O)C2=O)c1ccc(C)c(Cl)c1)C(=O)N1C[C@@H](COc2nc(Nc3cnn(C)c3)nc3[nH]cc(Cl)c23)[C@H](OC)C1` (stereo partly drawn) [Compound I-71] has a DC50 (GSPT1) of 500 to 2500 nM.
`C=C(COC(=O)c1c(C)csc1NC(=O)NCc1ccc2c(c1)CN(C1CCC(=O)NC1=O)C2=O)C(=O)N1CCN(c2nc(OC[C@@H]3CCCN3C)nc3c2CCN(c2cccc4cccc(Cl)c24)C3)C[C@@H]1CC#N` (stereo partly drawn) [Compound I-72, 2-[(2S)-4-[7-(8-chloro-1-naphthyl)-2-[[(2S)-1-methylpyrrolidin-2-yl]methoxy]-6,8-dihydro-5H-pyrido[3,4-d]pyrimidin-4-yl]-2-(cyanomethyl)piperazine-1-carbonyl]allyl 2-[[2-(2,6-dioxo-3-piperidyl)-1-oxo-isoindolin-5-yl]methylcarbamoylamino]-4-methyl-thiophene-3-carboxylate] was tested, and the EC50 (KRAS G12C) was 5000 to 10000 nM and the DC50 (GSPT1) was over 2500 nM.
Molecule `C=C(COC(=O)NCc1cc(Cl)cc(NC(=O)NCc2ccc3c(c2)CN(C2CCC(=O)NC2=O)C3=O)c1)C(=O)N1CCN(c2nc(OC[C@@H]3CCCN3C)nc3c2CCN(c2cccc4cccc(Cl)c24)C3)C[C@@H]1CC#N` (stereo partly drawn) [Compound I-73] has an EC50 (KRAS G12C) of under 250 nM and a DC50 (GSPT1) of 50 to 500 nM.
`C=C(COC(=O)NCCCc1cc(Cl)cc(NC(=O)NCc2ccc3c(c2)CN(C2CCC(=O)NC2=O)C3=O)c1)C(=O)N1CCN(c2nc(OC[C@@H]3CCCN3C)nc3c2CCN(c2cccc4cccc(Cl)c24)C3)C[C@@H]1CC#N` (stereo partly drawn) [Compound I-74] gave an EC50 (KRAS G12C) of under 250 nM and a DC50 (GSPT1) of 500 to 2500 nM.
Work on `C=C(COc1cc(NC(=O)NCc2ccc3c(c2)CN(C2CCC(=O)NC2=O)C3=O)cc(F)c1F)C(=O)N1CCN(c2nc(OC[C@@H]3CCCN3C)nc3c2CCN(c2cccc4cccc(Cl)c24)C3)C[C@@H]1CC#N` (stereo partly drawn) [Compound I-75] yielded an EC50 (KRAS G12C) of 5000 to 10000 nM and a DC50 (GSPT1) of over 2500 nM.
With `C=C(COc1ccc(Cl)cc1NC(=O)NCc1ccc2c(c1)CN(C1CCC(=O)NC1=O)C2=O)C(=O)N1CC2(CC(n3nc(-c4ccc5c(cnn5C)c4)c(-c4c(Cl)c(C)cc5[nH]ncc45)c3C)C2)C1` (stereo not drawn) [Compound I-76] the EC50 (KRAS G12C) was 250 to 5000 nM and the DC50 (GSPT1) was 50 to 500 nM.
`C=C(COc1cc(-c2ccccn2)ccc1CNc1nc(N[C@H](CC)CO)nc2c1ncn2C(C)C)C(=O)N1CCN(c2nc(OC[C@@H]3CCCN3C)nc3c2CCN(c2cccc4cccc(Cl)c24)C3)C[C@@H]1CC#N` [II-186] was tested, and the EC50 (KRAS G12C) was 250 to 5000 nM.
In the case of `C=C(CN1CCN(c2nc(NCc3nc4cc(C)ccc4[nH]3)n3ncc(Br)c3n2)CC1)C(=O)N1CCN(c2nc(OC[C@@H]3CCCN3C)nc3c2CCN(c2cccc4cccc(Cl)c24)C3)C[C@@H]1CC#N` [II-190], the EC50 (KRAS G12C) is reported as 250 to 5000 nM.
